61 molecules from US20200392116A1, “SUBSTITUTED HETEROCYCLES AS c-MYC TARGETING AGENTS” (NORTHWESTERN UNIVERSITY, priority 2019, published 2020) can be followed below.

This test in a line: Potency code of Table 2 (assay not stated).

Consider `Oc1c(-c2cc(C(F)(F)F)[nH]n2)ccc(OCc2ccc(Cl)cc2)c1-c1ccc(Cl)c(C(F)(F)F)c1` [NUCC-0200732], for which the Potency code entry is “+ (>40 +)”. Take `Cn1nc(-c2ccc(OCc3ccc(Cl)cc3)c(-c3ccc(Cl)c(C(F)(F)F)c3)c2O)cc1C(F)(F)F` [NUCC-0200733]: the Potency code entry is listed as “+ (>40 +)”. For `Oc1c(-c2cc(C(F)(F)F)[nH]n2)ccc(OCc2ccc(Cl)cc2)c1-c1ccc(F)c(C(F)(F)F)c1` [NUCC-0200734] the value was “+ (>40 +)”; for `Cn1nc(C(F)(F)F)cc1-c1ccc(OCc2ccc(Cl)cc2)c(-c2ccc(F)c(C(F)(F)F)c2)c1O` [NUCC-0200735], “+ (>40 +)”. `Cn1nc(-c2ccc(OCc3ccc(Cl)cc3)c(-c3ccc(F)c(C(F)(F)F)c3)c2O)cc1C(F)(F)F` [NUCC-0200736]: the Potency code entry is on record as “+ (>40 +)”. For `Oc1c(-c2cc(C(F)(F)F)[nH]n2)ccc(OCc2ccc(Cl)cc2)c1-c1ccc(C(F)(F)F)cc1Cl` [NUCC-0200737] the value was “+ (>40 +)”; for `Cn1nc(C(F)(F)F)cc1-c1ccc(OCc2ccc(Cl)cc2)c(-c2ccc(C(F)(F)F)cc2Cl)c1O` [NUCC-0200738], “+++ (10-30 +++)”.

With `CCCc1c(OCc2ccc(Cl)cc2)ccc(-c2cc(C(F)(F)F)n[nH]2)c1O` [NUCC-0200740], the Potency code entry was “+ (>40 +)”. For `Cn1cc(-c2ccc(OCc3ccc(Cl)cc3)cn2)c(C(F)(F)F)n1` [NUCC-0200741] the value was “+ (>40 +)”; for `Cn1cc(-c2ccc(NCc3ccc(Cl)cc3)cn2)c(C(F)(F)F)n1` [NUCC-0200742], “+ (>40 +)”.

Turning to `Cn1cc(-c2ccc(OCc3ccc(Cl)cc3)cc2F)c(C(F)(F)F)n1` [NUCC-0200743], the Potency code entry is “+ (>40 +)”. For `Cn1nc(C(F)(F)F)cc1-c1ccc(OCc2ccc(Cl)cc2)cc1Cl` [NUCC-0200744] the value was “+ (>40 +)”; for `Cn1nc(C(F)(F)F)cc1-c1ccc(OCc2ccc(Cl)cc2)cc1N` [NUCC-0200745], “+ (>40 +)”; for `Cn1cc(-c2ccc(OCc3ccc(Cl)cc3)cc2N)c(C(F)(F)F)n1` [NUCC-0200746], “+ (>40 +)”. To `Cn1cc(-c2cnc(OCc3ccc(Cl)cc3)cn2)c(C(F)(F)F)n1` [NUCC-0200747] belongs “+ (>40 +)”; to `Cn1nc(C(F)(F)F)cc1-c1ccc(OCc2ccc(Cl)cc2)cc1C#N` [NUCC-0200812], “+ (>40 +)”. As for `Cn1cc(-c2ccc(OCc3ccc(Cl)cc3)cc2CO)c(C(F)(F)F)n1` [NUCC-0200813], the Potency code result was “+ (>40 +)”. Regarding `Cn1cc(-c2ccc(OCc3ccc(Cl)cc3)cc2Cl)c(C(F)(F)F)n1` [NUCC-0200814], the Potency code entry was “+ (>40 +)”. As for `Cn1cc(-c2ccc(OCc3ccc(Cl)cc3)cc2C=O)c(C(F)(F)F)n1` [NUCC-0200815], the Potency code result was “+ (>40 +)”. To `Cn1nc(C(F)(F)F)cc1-c1ccc(OCc2ccc(Cl)cc2)cc1C(N)=O` [NUCC-0200816] belongs “+ (>40 +)”; to `Cn1nc(C(F)(F)F)cc1-c1ccc(NC(=O)c2ccc(Cl)cc2)cc1O` [NUCC-0200817], “+ (>40 +)”. In the case of `COC(=O)c1cc(-c2ccc(OCc3ccc(Cl)cc3)c(-c3cc(C(F)(F)F)cc(C(F)(F)F)c3)c2O)nn1C` [NUCC-0200970], the Potency code entry is “+ (>40 +)”.

Turning to `Cn1nc(-c2ccc(OCc3ccc(Cl)cc3)c(-c3cc(C(F)(F)F)cc(C(F)(F)F)c3)c2O)cc1C(=O)O` [NUCC-0200971], the Potency code result is given as “++++ (<10 ++++)”. For the molecule `O=C(O)c1cc(-c2ccc(OCc3ccc(Cl)cc3)c(-c3cc(C(F)(F)F)cc(C(F)(F)F)c3)c2O)n[nH]1` [NUCC-0200973], the Potency code result was “++++ (<10 ++++)”. To `Cn1nc(C(F)(F)F)cc1-c1ccc(OCc2ccc(Cl)cc2)c(-c2cccc(C(F)(F)F)c2)c1O` [NUCC-0200974] belongs “+ (>40 +)”; to `Cn1nc(C(F)(F)F)cc1-c1ccc(OCc2ccc(Cl)cc2)c(-c2ccc(Cl)c(C(F)(F)F)c2)c1O` [NUCC-0200975], “+ (>40 +)”; to `Cn1nc(C(F)(F)F)cc1-c1ccc(OCc2ccc(Cl)cc2)cc1F` [NUCC-0200977], “+ (>40 +)”. To `Cn1nc(C(F)(F)F)cc1-c1ccc(OCc2ccc(Cl)cc2)cc1CO` [NUCC-0200978] belongs “+ (>40 +)”.

Turning to `Cn1nc(C(F)(F)F)c(Br)c1-c1ccc(OCc2ccc(Cl)cc2)cc1C#N` [NUCC-0200979], the Potency code entry is “+ (>40 +)”. For `Cn1nc(-c2ccc(OCc3cccnc3)c(-c3cc(C(F)(F)F)cc(C(F)(F)F)c3)c2O)cc1C(F)(F)F` [NUCC-0201023] the value was “+ (>40 +)”. Turning to `Oc1c(-c2cc(C(F)(F)F)n[nH]2)ccc(OCCc2ccc(Cl)cc2)c1-c1cc(C(F)(F)F)cc(C(F)(F)F)c1` [NUCC-0201024], the Potency code entry is “++++ (<10 ++++)”. `Cn1nc(C(F)(F)F)cc1-c1ccc(OCCc2ccc(Cl)cc2)c(-c2cc(C(F)(F)F)cc(C(F)(F)F)c2)c1O` [NUCC-0201025]: the Potency code result is given as “++ (30-40 ++)”.

Regarding `Cn1nc(-c2ccc(OCCc3ccc(Cl)cc3)c(-c3cc(C(F)(F)F)cc(C(F)(F)F)c3)c2O)cc1C(F)(F)F` [NUCC-0201026], the Potency code entry was “+ (>40 +)”. As to `COc1ccc(CCOc2ccc(-c3cc(C(F)(F)F)n[nH]3)c(O)c2-c2cc(C(F)(F)F)cc(C(F)(F)F)c2)cc1` [NUCC-0201027], the Potency code result was “+++ (10-30 +++)”.

For `COc1ccc(CCOc2ccc(-c3cc(C(F)(F)F)nn3C)c(O)c2-c2cc(C(F)(F)F)cc(C(F)(F)F)c2)cc1` [NUCC-0201028], the Potency code result is given as “+ (>40 +)”.

For `COc1ccc(CCOc2ccc(-c3cc(C(F)(F)F)n(C)n3)c(O)c2-c2cc(C(F)(F)F)cc(C(F)(F)F)c2)cc1` [NUCC-0201029], the Potency code result is recorded as “+ (>40 +)”. To `CC(C)COc1ccc(-c2cc(C(F)(F)F)n[nH]2)c(O)c1-c1cc(C(C)(F)F)cc(C(F)(F)F)c1` [NUCC-0201030] belongs “+ (>40 +)”; to `CCCCOc1ccc(-c2cc(C(F)(F)F)n[nH]2)c(O)c1-c1cc(C(F)(F)F)cc(C(F)(F)F)c1` [NUCC-0201031], “+ (>40 +)”; to `Oc1c(-c2cc(C(F)(F)F)n[nH]2)ccc(OCc2ccc(F)cc2)c1-c1cc(C(F)(F)F)cc(C(F)(F)F)c1` [NUCC-0201033], “+ (>40 +)”.

Take `Cn1nc(C(F)(F)F)cc1-c1ccc(OCc2ccc(F)cc2)c(-c2cc(C(F)(F)F)cc(C(F)(F)F)c2)c1O` [NUCC-0201034]: the Potency code result is “+ (>40 +)”. Turning to `Cn1nc(-c2ccc(OCc3ccc(F)cc3)c(-c3cc(C(F)(F)F)cc(C(F)(F)F)c3)c2O)cc1C(F)(F)F` [NUCC-0201035], the Potency code entry is “+ (>40 +)”. On to `CS(=O)(=O)c1cccc(-c2c(OCc3ccc(Cl)cc3)ccc(-c3cc(C(F)(F)F)n[nH]3)c2O)c1` [NUCC-0201036], for which the Potency code result is “++ (30-40 ++)”. In the case of `Oc1c(-c2cc(C(F)(F)F)n[nH]2)ccc(OCc2ccc(Cl)cc2)c1-c1cncc(C(F)(F)F)c1` [NUCC-0201037], the Potency code entry was “+++ (10-30 +++)”.

Turning to `N#Cc1cncc(-c2c(OCc3ccc(Cl)cc3)ccc(-c3cc(C(F)(F)F)n[nH]3)c2O)c1` [NUCC-0201038], the Potency code result was “++++ (<10 ++++)”. Turning to `CCOc1ncc(C(F)(F)F)cc1-c1c(OCc2ccc(Cl)cc2)ccc(-c2cc(C(F)(F)F)n[nH]2)c1O` [NUCC-0201039], the Potency code result is listed as “+++ (10-30 +++)”. Consider `Oc1c(-c2cc(C(F)(F)F)n[nH]2)ccc(OCc2ccc(Cl)cc2)c1-c1cncc(F)c1` [NUCC-0201040], for which the Potency code entry is reported as “+++ (10-30 +++)”. On to `COc1ccc(COc2ccc(-c3cc(C(F)(F)F)n[nH]3)c(O)c2-c2cc(C(F)(F)F)cc(C(F)(F)F)c2)cc1` [NUCC-0201041], for which the Potency code result is recorded as “+ (>40 +)”. To `COc1ccc(COc2ccc(-c3cc(C(F)(F)F)nn3C)c(O)c2-c2cc(C(F)(F)F)cc(C(F)(F)F)c2)cc1` [NUCC-0201042] belongs “+ (>40 +)”; to `COc1ccc(COc2ccc(-c3cc(C(F)(F)F)n(C)n3)c(O)c2-c2cc(C(F)(F)F)cc(C(F)(F)F)c2)cc1` [NUCC-0201043], “+ (>40 +)”. In the case of `CCCCCCOc1ccc(-c2cc(C(F)(F)F)n[nH]2)c(O)c1-c1cncc(C(F)(F)F)c1` [NUCC-0201192], the Potency code result is on record as “+++ (10-30 +++)”. For `CCCCOc1ccc(-c2cc(C(F)(F)F)n[nH]2)c(O)c1-c1cncc(C#N)c1` [NUCC-0201193] the value was “++++ (<10 ++++)”; for `CCCCCCOc1ccc(-c2cc(C(F)(F)F)n[nH]2)c(O)c1-c1cncc(C#N)c1` [NUCC-0201194], “+ (>40 +)”; for `CC(C)CCOc1ccc(-c2cc(C(F)(F)F)n[nH]2)c(O)c1-c1cncc(C#N)c1` [NUCC-0201195], “++++ (<10 ++++)”. To `CCCOc1ccc(-c2cc(C(F)(F)F)n[nH]2)c(O)c1-c1cc(C(F)(F)F)cc(C(F)(F)F)c1` [NUCC-0201197] belongs “+++ (10-30 +++)”.

Turning to `[N-]=[N+]=NCCOCCOCCOCC(=O)Nc1ccc(COc2ccc(-c3cc(C(F)(F)F)n[nH]3)c(O)c2-c2cc(C(F)(F)F)cc(C(F)(F)F)c2)cc1` [NUCC-0201199], the Potency code result is given as “+++ (10-30 +++)”. For `[N-]=[N+]=NCCOCCOCCOCCOCC(=O)Nc1ccc(COc2ccc(-c3cc(C(F)(F)F)n[nH]3)c(O)c2-c2cc(C(F)(F)F)cc(C(F)(F)F)c2)cc1` [NUCC-0201200] the value was “+ (>40 +)”.

On to `Nc1ccc(COc2ccc(-c3cc(C(F)(F)F)n[nH]3)c(O)c2-c2cc(C(F)(F)F)cc(C(F)(F)F)c2)cc1` [NUCC-0201201], for which the Potency code entry was “++++ (<10 ++++)”.

For `CCCCOc1ccc(-c2cc(C(F)(F)F)nn2C)c(O)c1-c1cncc(C(F)(F)F)c1` [NUCC-0201204], the Potency code result was “+++ (10-30 +++)”. To `CCCCCCOc1ccc(-c2cc(C(F)(F)F)nn2C)c(O)c1-c1cncc(C(F)(F)F)c1` [NUCC-0201205] belongs “++++ (<10 ++++)”. To `CC(C)CCOc1ccc(-c2cc(C(F)(F)F)nn2C)c(O)c1-c1cncc(C(F)(F)F)c1` [NUCC-0201206] belongs “++++ (<10 ++++)”; to `CC(C)CCOc1ccc(-c2cc(C(F)(F)F)nn2C)c(O)c1-c1cncc(C#N)c1` [NUCC-0201208], “++++ (<10 ++++)”.
